Assays:
[1] = pharmacokinetics in mice; conditions: 6.25 mg/kg i.p.
Description: Blood and brains were collected from three to four mice per group at 0, 1, 2, 4 and 24 hours following injection of 6.25 mg/kg ToM. Plasma samples were extracted using protein precipitation. Brain samples were extracted by homogenization in acetonitrile:DMSO, 95:5 using a gentleMACS Dissociater and gentleMACS™ M Tubes. The protein in the mouse plasma samples was removed by protein precipitation with acetonitrile containing the internal standard. After protein precipitation the study samples were centrifuged, and the resulting supernatant was analyzed. The acetonitrile:DMSO from the brain sample homogenates were spiked with the internal standard and then analyzed. All samples were analyzed by first separating them by reversed phase gradient LC and subsequently detecting them using positive electrospray ionization and multiple reaction monitoring (MRM).
First, we performed a pharmacokinetic study of the behavior of the molecule in mice.

[2] = system: Purified AML cells from spleens of moribund mice; assay: purified MYC/BCL-XL AML cells in culture; conditions: Mus musculus
[3] = system: normal REFs; assay: apoptosis assay (Cell Death Detection ELISA), normal REFs; format: cell-based, rat; conditions: 5 μM, 24 and 48 hours
Description: (§1) FIG. 4: MYCMI-7 induces apoptosis in malignant cells and growth arrest in normal cells. A) Cell cycle distribution analysis by flow cytometry of MYC-regulated P493-6 cells and normal rat embryo fibroblasts (REFs). Left panel, P493-6 synchronized in G0 by 24 hours treatment of […] doxycycline. Doxycycline was removed and the cells were harvested 48 hours after the addition of fresh medium containing DMSO or 5 μM MYCMI-7. Right panel, flow cytometry analysis of normal REFs treated with DMSO or 5 μM MYCMI-7. B) Apoptosis assay using the Cell Death Detection ELISA^plus kit. Left panel, immortalized Rat1 fibroblasts with different MYC status after 24 hours of 5 μM MYCMI-7 treatment, middle panel and right panels, normal REFs and normal peripheral blood lymphocytes, respectively, after 24 and 48 hours of 5 μM MYCMI-7 treatment. C) Measurement of viability and apoptosis by Apo-Tox Glo Triplex assay in A375 melanoma cells after 3 days of treatment with MYCMI-7 with the indicated concentrations. […] E) NHDFs treated with 3 μM MYCMI-7 for 72 hrs. Viability was measured by trypan blue exclusion assay. F) Cell growth measured with Cyt62 assay of primary normal human epidermal melanocytes (NHEM) treated for 72 hours with MYCMI-7, G) Viability measured by trypan blue exclusion assay of NHEM after treatment for 72 hours with MYCMI-7.

[4] = system: MYC protein; assay: steady state MYC protein level by western blot; format: cell-based; conditions: reconstituted HO15.19 MYC knockout Rat1 cells, 5 μM overnight
Description: (§2) FIG. 2: MYCMI-7 downregulates MYC and MYCN protein expresión. A) Steady state levels of MYC protein in MCF7 cells after 17 hours exposure to indicated concentrations MYCMI-7 or ellipticine B) MYC mRNA expression in MCF7 cells after treatment with MYCMI-7 for various time points. C) Steady state levels of MYC protein in different HCT116 cell lines (WT, FBW7−/− or p53−/−) after 17 hours exposure to 5 μM MYCMI-7. Endogenous MYC was immunoprecipitated and detected by western blot analysis. D) Cycloheximide (CHX) chase in HCT116 cells. Cells were subjected to 5 μM MYCMI-7 30 min prior cycloheximide addition. Cells were harvested after the indicated time points, MYC was immunoprecipitated using N262 antibody and the MYC levels analyzed using western blot (C33 antibody). E) CHX chase after MYCMI-7 treatment performed as in (D) using Fbxw7-deficient HCT116 cells. F) Stable expression of wt, T58A or S62A MYC in HO15.19 MYC−/− cells. The cells were treated with 5 μM MYCMI-7 overnight, and MYC expression was analyzed by western blot. G) Cartoon showing a linear structural representation of wt MYC and indicated mutants. H-J) Expression of MYC mutants after MYCMI-7 treatment. COS-7 cells were transfected with CMV-driven vectors containing HA-tagged wt MYC or mutants for 24 hrs and treated with 5 μM MYCMI-7 for 17 hrs. The DN (H) and DC (I) MYC mutants encodes the C-terminal and N-terminal halves of the MYC protein, respectively. DBr (J) lacks the DNA-binding basic region of the protein. A-J). Representative western blots out of at least three experiments are shown.
(§3) For western blot equal amounts of proteins ([…]) were separated on a 4-12% SDS-PAGE gel. Proteins were transferred to Immobilion-P membrane (Millipore) and detected by immunostaining and chemoluminescence (Immobilion western HRP substrate; Millipore). For immunoprecipitations 500-1000 μg of protein was used. […] Briefly, cells were crosslinked with 1% formaldehyde on ice for 6 minutes. Nuclear chromatin was sonicated on ice to fragments from 0.3 kb to 0.5 kb. Nuclear chromatin equivalent to 2.5×10^7 cells was immunoprecipitated with 2 μg antibody.

[5] = target: MYC protein (Homo sapiens, UniProt P01106); assay: steady state MYC protein level by western blot; format: cell-based; conditions: for MYC protein level: 17 hours, 5 μM
Chain of MYC protein (Homo sapiens, UniProt P01106) (P01106 16-454): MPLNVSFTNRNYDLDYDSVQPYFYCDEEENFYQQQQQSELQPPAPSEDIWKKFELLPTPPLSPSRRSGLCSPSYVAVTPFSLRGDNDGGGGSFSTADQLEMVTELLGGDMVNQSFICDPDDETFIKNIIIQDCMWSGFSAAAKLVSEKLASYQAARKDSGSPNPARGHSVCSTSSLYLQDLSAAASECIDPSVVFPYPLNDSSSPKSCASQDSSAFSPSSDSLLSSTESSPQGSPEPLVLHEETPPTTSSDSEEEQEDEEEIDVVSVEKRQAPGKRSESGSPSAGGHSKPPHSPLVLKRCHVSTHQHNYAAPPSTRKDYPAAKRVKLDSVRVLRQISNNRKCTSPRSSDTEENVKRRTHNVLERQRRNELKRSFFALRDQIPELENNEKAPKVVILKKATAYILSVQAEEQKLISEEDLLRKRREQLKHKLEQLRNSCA
Description: as §2, §3

[6] = system: normal human peripheral blood lymphocytes; assay: apoptosis assay (Cell Death Detection ELISA), peripheral blood lymphocytes; format: cell-based; conditions: 5 μM, 24 and 48 hours
Description: as §1

[7] = system: cyclin E; assay: cyclin E protein expression; format: cell-based
Description: as §3

[8] = system: Normal human dermal fibroblasts (NHDF); assay: resazurin, cell count and trypan blue, NHDF; format: cell-based
Description: as §1

[9] = system: normal rat embryo fibroblasts (REFs); assay: cell cycle distribution by flow cytometry, normal REFs; format: cell-based; conditions: 5 μM
Description: FIG. 4: MYCMI-7 induces apoptosis in malignant cells and growth arrest in normal cells. A) Cell cycle distribution analysis by flow cytometry of MYC-regulated P493-6 cells and normal rat embryo fibroblasts (REFs). Left panel, P493-6 synchronized in G0 by 24 hours treatment of […] doxycycline. Doxycycline was removed and the cells were harvested 48 hours after the addition of fresh medium containing DMSO or 5 μM MYCMI-7. Right panel, flow cytometry analysis of normal REFs treated with DMSO or 5 μM MYCMI-7. B) Apoptosis assay using the Cell Death Detection ELISA^plus kit. Left panel, immortalized Rat1 fibroblasts with different MYC status after 24 hours of 5 μM MYCMI-7 treatment, middle panel and right panels, normal REFs and normal peripheral blood lymphocytes, respectively, after 24 and 48 hours of 5 μM MYCMI-7 treatment. […] Viability was measured by trypan blue exclusion assay. F) Cell growth measured with Cyt62 assay of primary normal human epidermal melanocytes (NHEM) treated for 72 hours with MYCMI-7, G) Viability measured by trypan blue exclusion assay of NHEM after treatment for 72 hours with MYCMI-7.
Flow cytometry: P493-6 cells were synchronized using 1 μg/ml doxycycline. […] Cells were stained with propidium iodide (Sigma) and 1×10^4 cells per treatment were analyzed using a FACScan and CellQuestPro (Becton Dickinson). […]

CCN(CC)CC[n+]1ccc2c(C)c3[nH]c4ccccc4c3c(C)c2c1 [MYCMI-7, 2-(5,11-Dimethyl-6H-25-pyrido[4,3-b]carbazol-2-yl)-N,N-diethylethanamine bromide]
detection in the brain [1]: could not be detected
GI50 [2]: < 1000 nM
apoptosis [3]: did not induce apoptosis
levels of wt, T58A and S62A MYC [4]: reduced the levels of both wt and the MYC mutants
phosphorylation of MYC at Thr-58 or Ser-62 [5]: did not increase
MYC protein level ([5]; FBXW7−/− HCT116 cells): unaffected
steady state level of MYC protein ([5]; MCF7 cells, 17 hrs, 5 μM MYCMI-7): decreased drastically
MYC protein level ([5]; wt and p53 null HCT116 cells): strongly reduced
apoptosis [6]: did not induce apoptosis
protein expression of cyclin E [7]: unaffected
cell number and metabolic activity normalized to DMSO ([8]; 3 days, low micromolar concentrations): lower overall cell number and metabolic activity
cell viability (trypan blue) ([8]; 72 hrs): unaffected
cell cycle effect [9]: induced G1 arrest
cell death [9]: no increase in cell death

Source: patent US20250122193A1, “NOVEL PYRIDOCARBAZOLIUM COMPOUNDS AND MEDICAL USES THEREOF” (MyCural Therapeutics, priority 2021, published 2025)
